Where a name gives a salt, the structure may show the parent alone.
Key:
[1] = test system: T1, PDE4 partially purified from human U-937 myeloid leukemia cells; experiment: PDE4 Assay (enzyme from U-937 cells, [3H]cAMP); assay type: biochemical; settings: PDE4 from U-937 cells, Tris buffer pH 7.5, 20 minutes at 25° C.
T1 construct: PDE4 partially purified from human U-937 myeloid leukemia cells was used
Protocol: Test article and/or vehicle was incubated with 0.2 mg enzyme and 1 mM cAMP containing 0.01 mM [3H]cAMP in Tris buffer pH 7.5 for 20 minutes at 25° C. The reaction was terminated by boiling for 2 minutes and the resulting AMP is converted to adenosine by addition of 10 mg/ml snake venom nucleotidase and further incubation at 37° C. for 10 minutes. Unhydrolyzed cAMP is bound to AG1-X2 resin, and remaining [3H]Adenosine in the aqueous phase is quantitated by scintillation counting.

TNF-α = experiment: Cytokine assay, TNF-α release from PBMC; assay type: cell-based; settings: 1 μg/mL LPS; for IC50: supernatant at 24 hours
Protocol: (§1) The ability of the compounds described herein to inhibit pro-inflammatory cytokines or phsophodiesterases were tested.
(§2) Frozen human peripheral blood mononucleocytes (PBMC) were thawed and centrifuged. Cryopreservation media was aspirated off of the cell pellet, and the cells were resuspended in fresh culture media (CM) comprising RPMI 1640 and 10% FBS in 96 well plates. Test article was dissolved in DMSO to form a 10 mM sample (DMSO, 100%). The 10 mM samples were diluted to 100 μM in CM (DMSO, 1%), then further diluted to 10, 1, 0.1, 0.01 μM in 200 μL of CM (n=3). […] IL-23 was assayed using a commercial ELISA kit (R&D Systems).

IL-5 = experiment: Cytokine assay, IL-5 release from PBMC; assay type: cell-based; settings: human PBMC, 20 ug/mL PHA; for IC50: supernatant at 48 hours; for inhibition at 10 µM: 48 hours
Protocol: as §1, §2

IL-2 = experiment: Cytokine assay, IL-2 release from PBMC; assay type: cell-based; settings: human PBMC, 20 ug/mL PHA; for IC50: supernatant at 24 hours; for inhibition at 10 µM: 24 hours
Protocol: as §1, §2

IFN-γ = experiment: Cytokine assay, IFN-γ release from PBMC; assay type: cell-based; settings: human PBMC, 20 ug/mL PHA; for IC50: supernatant at 24 hours; for inhibition at 10 µM: 24 hours
Protocol: as §1, §2

IL-10 = experiment: Cytokine assay, IL-10 release from PBMC; assay type: cell-based; settings: human PBMC, 20 ug/mL PHA; for IC50: supernatant at 48 hours; for inhibition at 10 µM: 48 hours
Protocol: as §1, §2

Structure (SMILES) | IC50 [1] | IC50 (TNF-α; Homo sapiens, PBMC, 24 h) | IC50 (IL-5) | IC50 (IL-2) | IC50 (IFN-γ) | IC50 (IL-10) | inhibition at 10 µM (IFN-γ) | IC50 (TNF-α; human PBMC, hydrochloride) | inhibition at 10 µM (TNF-α; human PBMC, 24 hours, 10 μM) | inhibition at 10 µM (IL-5) | inhibition at 10 µM (IL-2) | inhibition at 10 µM (IL-10)
N#Cc1ccc(Oc2ccc3c(c2)B(O)OC3)cc1 [C18, 6-(4-Cyanophenoxy)-1,3-dihydro-1-hydroxy-2,1-benzoxaborole] | > 10000 nM | > 10000 nM | > 10000 nM | > 10000 nM | > 10000 nM | > 10000 nM | – | – | – | – | – | –
COc1ccc(Oc2ccc3c(c2)B(O)OC3)cc1 [C31, 6-(4-Methoxyphenoxy)-1,3-dihydro-1-hydroxy-2,1-benzoxaborole] | 4000 to 10000 nM | > 10000 nM | > 10000 nM | > 10000 nM | – | > 10000 nM | 30 to 60% | – | – | – | – | –
O=C(O)c1ccc(Oc2ccc3c(c2)COB3O)cc1 [C38, 4-(1-hydroxy-1,3-dihydro-benzo[c][1,2]oxaborol-5-yloxy)-benzoic acid] | 4000 to 10000 nM | > 10000 nM | > 10000 nM | > 10000 nM | > 10000 nM | > 10000 nM | – | – | – | – | – | –
N#Cc1ccc(COc2ccc3c(c2)COB3O)cc1 [D1, 5-(4-Cyanobenzyloxy)-1,3-dihydro-1-hydroxy-2,1-benzoxaborole] | 1000 to 4000 nM | 4000 to 10000 nM | 1000 to 4000 nM | 1000 to 4000 nM | 1000 to 4000 nM | > 10000 nM | – | – | – | – | – | –
N#Cc1ccc(Oc2ccc3c(c2)COB3O)cc1Cl [D2, 5-(3-Chloro-4-cyanophenoxy)-1-hydroxy-2,1-benzoxaborole] | < 1000 nM | < 1000 nM | < 1000 nM | < 1000 nM | < 1000 nM | > 10000 nM | – | – | – | – | – | –
Cc1cc(Oc2ccc3c(c2)COB3O)ccc1C#N [D3, 5-(4-Cyano-3-methylphenoxy)-1,3-dihydro-1-hydroxy-2,1-benzoxaborole] | < 1000 nM | < 1000 nM | < 1000 nM | < 1000 nM | < 1000 nM | > 10000 nM | – | – | – | – | – | –
O=C1NC(=O)c2cc(Oc3ccc4c(c3)COB4O)ccc21 [D9, 5-(1,3-Dihydro-1-hydroxy-2,1-benzoxaborol-5-yloxy)isoindoline-1,3-dione] | < 1000 nM | < 1000 nM | < 1000 nM | < 1000 nM | < 1000 nM | < 1000 nM | – | – | – | – | – | –
CC(=O)Oc1cc(Oc2ccc3c(c2)COB3O)ccc1C#N [D11, 5-(4-Cyano-3-acetoxyphenoxy)-1,3-dihydro-1-hydroxy-2,1-benzoxaborole] | < 1000 nM | < 1000 nM | 4000 to 10000 nM | 1000 to 4000 nM | 1000 to 4000 nM | 1000 to 4000 nM | – | – | – | – | – | –
N#Cc1c(Cl)cccc1Oc1ccc2c(c1)COB2O [D13, 5-(3-Chloro-2-cyanophenoxy)-1,3-dihydro-1-hydroxy-2,1-benzoxaborole] | 1000 to 4000 nM | 4000 to 10000 nM | 1000 to 4000 nM | 1000 to 4000 nM | 1000 to 4000 nM | 1000 to 4000 nM | – | – | – | – | – | –
N#Cc1ccc(Oc2ccc3c(c2)COB3O)c(CNC=O)c1 [D25, 5-[4-Cyano-2-(formylaminomethyl)phenoxy]-1,3-dihydro-1-hydroxy-2,1-benzoxaborole] | < 1000 nM | 4000 to 10000 nM | < 1000 nM | < 1000 nM | 1000 to 4000 nM | 1000 to 4000 nM | – | – | – | – | – | –
N#Cc1ccc(Oc2ccc3c(c2)COB3O)c(CN)c1 [D26, 5-(2-Aminomethyl-4-cyanophenoxy)-1,3-dihydro-1-hydroxy-2,1-benzoxaborole hydrochloride] | 1000 to 4000 nM | – | 4000 to 10000 nM | 1000 to 4000 nM | 4000 to 10000 nM | > 10000 nM | – | > 10000 nM | – | – | – | –
CCN(CC)C(=O)COc1cc(C#N)ccc1Oc1ccc2c(c1)COB2O [D28, 2-(5-cyano-2-(1-hydroxy-1,3-dihydrobenzo[c][1,2]oxaborol-5-yloxy)phenoxy)-N,N-diethylacetamide] | < 1000 nM | < 1000 nM | < 1000 nM | < 1000 nM | < 1000 nM | 1000 to 4000 nM | – | – | – | – | – | –
CC(C)(C)OC(=O)COc1cc(C#N)ccc1Oc1ccc2c(c1)COB2O [D30, 5-[4-Cyano-2-(tert-butoxycarbonylmethoxy)phenoxy], 3-dihydro-1-hydroxy-2,1-benzoxaborole] | < 1000 nM | < 1000 nM | < 1000 nM | < 1000 nM | < 1000 nM | < 1000 nM | – | – | – | – | – | –
CCOC(=O)COc1cc(Oc2ccc3c(c2)COB3O)ccc1C#N [D38, [2-Cyano-5-(1-hydroxy-1,3-dihydro-benzo[c][1,2]oxaborol-5-yloxy)-phenoxy]-acetic acid ethyl ester] | < 1000 nM | < 1000 nM | < 1000 nM | < 1000 nM | < 1000 nM | 1000 to 4000 nM | – | – | – | – | – | –
CC(C)(C)OC(=O)COc1cc(Oc2ccc3c(c2)COB3O)ccc1C#N [D40, [2-Cyano-5-(1-hydroxy-1,3-dihydro-benzo[c][1,2]oxaborol-5-yloxy)-phenoxy]-acetic acid tert-butyl ester] | < 1000 nM | < 1000 nM | < 1000 nM | < 1000 nM | < 1000 nM | < 1000 nM | – | – | – | – | – | –
N#Cc1ccc(Oc2ccc3c(c2)COB3O)cc1OCC(=O)N1CCOCC1 [D41, 4-(1-Hydroxy-1,3-dihydro-benzo[c][1,2]oxaborol-5-yloxy)-2-(2-morpholin-4-yl-2-oxo-ethoxy)-benzonitrile] | < 1000 nM | 1000 to 4000 nM | 1000 to 4000 nM | < 1000 nM | < 1000 nM | 1000 to 4000 nM | – | – | – | – | – | –
COc1ccc(C#N)c(Oc2ccc3c(c2)COB3O)n1 [D47, 2-(1-Hydroxy-1,3-dihydro-benzo[c][1,2]oxaborol-5-yloxy)-6-methoxy-nicotinonitrile] | < 1000 nM | < 1000 nM | < 1000 nM | < 1000 nM | < 1000 nM | 1000 to 4000 nM | – | – | – | – | – | –
CCOC(=O)c1ccc(Oc2ccc3c(c2)COB3O)c(F)c1 [D51, 5-(2-Fluoro-4-ethoxycarbonylphenoxy)-1-hydroxy-2,1-benzoxaborole] | < 1000 nM | 1000 to 4000 nM | 4000 to 10000 nM | 1000 to 4000 nM | 1000 to 4000 nM | 1000 to 4000 nM | – | – | – | – | – | –
COC(=O)c1cc(F)c(Oc2ccc3c(c2)COB3O)c(F)c1 [D52, 5-(2,6-Difluoro-4-methoxycarbonylphenoxy)-1-hydroxy-2,1-benzoxaborole] | 1000 to 4000 nM | > 10000 nM | > 10000 nM | 4000 to 10000 nM | 4000 to 10000 nM | > 10000 nM | – | – | – | – | – | –
CCOC(=O)c1cc(F)c(Oc2ccc3c(c2)COB3O)cc1Cl [D53, 5-(5-Chloro-2-fluoro-4-ethoxycarbonylphenoxy)-1-hydroxy-2,1-benzoxaborole] | < 1000 nM | < 1000 nM | 1000 to 4000 nM | < 1000 nM | < 1000 nM | 1000 to 4000 nM | – | – | – | – | – | –
CCOC(=O)c1ccc(Oc2ccc3c(c2)COB3O)c(C(F)(F)F)c1 [D54, 5-(4-Eethoxycarbonyl-2-trifluoromethylphenoxy)-1-hydroxy-2,1-benzoxaborole] | < 1000 nM | < 1000 nM | 1000 to 4000 nM | < 1000 nM | < 1000 nM | < 1000 nM | – | – | – | – | – | –
CC(C)OC(=O)c1ccc(Oc2ccc3c(c2)COB3O)c(F)c1 [D55, 5-(2-Fluoro-4-isopropyloxycarbonylphenoxy)-1-hydroxy-2,1-benzoxaborole] | < 1000 nM | 4000 to 10000 nM | 1000 to 4000 nM | < 1000 nM | < 1000 nM | 4000 to 10000 nM | – | – | – | – | – | –
CCOC(=O)c1cc(F)c(Oc2ccc3c(c2)COB3O)c(F)c1 [D56, 5-(2,6-Difluoro-4-ethoxycarbonylphenoxy)-1-hydroxy-2,1-benzoxaborole] | 1000 to 4000 nM | > 10000 nM | > 10000 nM | 4000 to 10000 nM | > 10000 nM | > 10000 nM | – | – | – | – | – | –
CCOC(=O)c1ccc(Oc2ccc3c(c2)COB3O)cc1Cl [D57, 5-(3-Chloro-4-ethoxycarbonylphenoxy)-1-hydroxy-2,1-benzoxaborole] | < 1000 nM | 4000 to 10000 nM | < 1000 nM | < 1000 nM | 1000 to 4000 nM | > 10000 nM | – | – | – | – | – | –
NCc1ccc(Oc2ccc3c(c2)COB3O)cc1 [D59, (4-(1-Hydroxy-1,3-dihydrobenzo[c][1,2]oxaborol-5-yloxy)phenyl) methanaminium chloride] | > 10000 nM | – | – | – | – | – | – | – | 30 to 60% | 30 to 60% | 60 to 90% | < 30%
N#Cc1ccc(Oc2ccc3c(c2)COB3O)c(CN)c1 [D138, 5-(2-Aminomethyl-4-cyanophenoxy)-1,3-dihydro-1-hydroxy-2,1-benzoxaborole hydrochloride] | – | – | – | – | – | – | 30 to 60% | 1000 to 4000 nM | – | 60 to 90% | 60 to 90% | 30 to 60%

Reference: patent US9012431B2, “Boron-containing small molecules as anti-inflammatory agents” (Anacor Pharmaceuticals, Inc., priority 2008, dated 2015)
